In brackets after ≈: the same amount, converted by molar mass. Numbered stars: 1 amine (or outer) side, 2 acyl side, 3 side chain; on linkers, the order of the positions; unused ones are H or OH. Bridge positions count the residues as written; N and C are the ends. Square brackets hold non-standard residues; d marks the D form. Peptide text beside a SMILES is read from it. * marks the point of attachment. Orn(4R-OH,5R-OCH2CH2NMe3+) = C[N+](C)(C)CCO[C@@H](N[*:3])[C@H](O)C[C@H](N[*:1])C(=O)[*:2]; pTerphenylCO(4''-OnC5H11) = CCCCCOc1ccc(-c2ccc(-c3ccc(C(=O)*)cc3)cc2)cc1; hTyr(3S-OH,4S-OH) = N[C@H](C(=O)O)[C@H](O)[C@@H](O)c1ccc(O)cc1; Pro(3S-OH,4S-Me) = C[C@H]1CN[C@H](C(=O)O)[C@H]1O; Hyp = O=C(O)[C@@H]1C[C@@H](O)CN1
Tests used:
[1] = Antiplasmodial activity against Plasmodium berghei NK 173 infected in ICR (CD-1) mouse assessed as inhibition of parasite growth administered intraperitoneally for four days; settings: NK 173, 96 h
Plasmodium falciparum = assay: Antiplasmodial activity against Plasmodium falciparum FCB1 assessed as inhibition of parasite growth; format: functional, organism-based
[2] = Stability of the compound at pH 2 assessed as half-life; format: physicochemical; settings: buffer
[3] = molecular target: Muscarinic acetylcholine receptor M2 (Homo sapiens, UniProt P08172); assay: Antagonist activity at muscarinic M2 receptor (unknown origin) assessed as inhibition constant
Sequence of Muscarinic acetylcholine receptor M2 (P08172 whole entry): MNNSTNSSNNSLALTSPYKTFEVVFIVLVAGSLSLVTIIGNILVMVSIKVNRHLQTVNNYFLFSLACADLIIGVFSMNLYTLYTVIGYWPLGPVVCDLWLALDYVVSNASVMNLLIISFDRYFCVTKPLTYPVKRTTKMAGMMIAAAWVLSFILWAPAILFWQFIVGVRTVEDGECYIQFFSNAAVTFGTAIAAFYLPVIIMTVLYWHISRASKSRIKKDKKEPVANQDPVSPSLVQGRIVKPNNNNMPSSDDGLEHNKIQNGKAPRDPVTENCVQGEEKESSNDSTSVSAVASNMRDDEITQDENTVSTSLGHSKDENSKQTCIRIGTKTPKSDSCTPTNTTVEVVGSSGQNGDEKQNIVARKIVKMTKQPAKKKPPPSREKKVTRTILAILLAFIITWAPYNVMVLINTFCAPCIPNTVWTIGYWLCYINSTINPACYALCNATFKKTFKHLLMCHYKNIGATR

[4] = Inhibition of Leukotriene B4 production in human blood Polymorphonuclear neutrophil cells; format: functional, tissue-based
Homo sapiens = species on record: Homo sapiens; assay: Inhibition of Leukotriene B4 production in human whole blood; format: functional
in vivo [5] = settings: chimpanzee, iv, 0.5 mg/kg
[6] = Clearance in Chimpanzee at 0.5 mg/kg administered as iv infusion; format: ADME, organism-based, Pan troglodytes; settings: in vivo
Candida albicans [7] = assay: Fungicidal activity against Candida albicans; format: functional
[8] = Clearance in Chimpanzee at 0.5 mg/kg, iv bolus injection; format: ADME, organism-based, Pan troglodytes; settings: in vivo
in vivo [9] = settings: chimpanzee, iv, 0.5 mg/kg; remark: listed apart in the source
Candida albicans [10] = assay: Antifungal activity against Candida albicans GS; format: functional, organism-based
[11] = Oral bioavailability in rat relative to urinary excretion; format: ADME, organism-based; settings: urine
[12] = Oral bioavailability in rat relative to plasma exposure; format: ADME, organism-based
[13] = Stability of the compound in 20% aqueous dioxane solution at 30 degreeC assessed as compound hydrolysis by measuring rate constant; format: physicochemical; settings: buffer
[14] = Stability of the compound in 50% dioxane solution at 30 degreeC assessed as compound hydrolysis by measuring rate constant; format: physicochemical
[15] = Drug metabolism at pH 2 assessed as parent compound remaining measured after 120 mins; format: physicochemical; settings: read-out: Drug metabolism
Mus musculus = species on record: Mus musculus; assay: Analgesic activity in mouse assessed as protection against phenylbenzoquinone-induced writhing; format: functional
[16] = molecular target: Sodium/glucose cotransporter 2 (Homo sapiens, UniProt P31639); assay: Inhibition of human SGLT2
Sequence of Sodium/glucose cotransporter 2 (P31639 whole entry): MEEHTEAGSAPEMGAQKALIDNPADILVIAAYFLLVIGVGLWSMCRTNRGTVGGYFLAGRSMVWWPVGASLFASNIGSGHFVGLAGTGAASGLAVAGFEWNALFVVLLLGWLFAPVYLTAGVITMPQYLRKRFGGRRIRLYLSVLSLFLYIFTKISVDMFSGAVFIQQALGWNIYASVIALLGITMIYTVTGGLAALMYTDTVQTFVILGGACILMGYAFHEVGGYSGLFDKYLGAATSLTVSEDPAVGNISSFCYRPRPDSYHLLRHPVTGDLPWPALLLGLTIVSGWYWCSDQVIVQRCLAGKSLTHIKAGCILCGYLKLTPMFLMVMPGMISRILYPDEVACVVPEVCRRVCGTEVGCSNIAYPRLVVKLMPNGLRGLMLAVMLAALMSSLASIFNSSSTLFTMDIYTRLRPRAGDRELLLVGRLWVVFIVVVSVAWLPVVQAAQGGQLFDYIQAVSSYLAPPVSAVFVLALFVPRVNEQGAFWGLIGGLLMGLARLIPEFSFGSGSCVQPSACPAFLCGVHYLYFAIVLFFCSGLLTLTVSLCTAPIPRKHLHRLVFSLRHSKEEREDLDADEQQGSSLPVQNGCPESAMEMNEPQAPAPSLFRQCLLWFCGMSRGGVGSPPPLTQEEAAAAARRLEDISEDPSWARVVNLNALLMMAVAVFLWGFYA

[17] = Terminal half-life in iv dosed rhesus monkey; format: ADME, organism-based, Macaca mulatta; settings: in vivo, read-out: beta t1/2 (converted)
[18] = Oral bioavailability in rat; format: ADME, organism-based; settings: in vivo
[19] = molecular target: T1, Neutrophil elastase (Homo sapiens) (UniProt P08246); assay: Time-dependent inhibition of human leukocyte elastase assessed as observed binding constant
T1 sequence (whole entry): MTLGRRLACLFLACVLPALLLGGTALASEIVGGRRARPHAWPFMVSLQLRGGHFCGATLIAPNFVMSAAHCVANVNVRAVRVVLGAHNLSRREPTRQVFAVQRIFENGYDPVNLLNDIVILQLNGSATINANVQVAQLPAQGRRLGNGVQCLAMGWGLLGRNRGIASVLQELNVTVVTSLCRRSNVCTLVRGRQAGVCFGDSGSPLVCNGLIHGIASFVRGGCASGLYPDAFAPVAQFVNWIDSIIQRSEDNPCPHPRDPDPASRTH

[20] = Oral bioavailability in monkey; format: ADME, organism-based, Macaca mulatta; settings: rhesus monkey, in vivo
[21] = Terminal half-life in rhesus monkey at 40 mg/kg, po; format: ADME, organism-based, Macaca mulatta; settings: in vivo, read-out: beta t1/2 (converted)
[22] = Terminal half-life in iv dosed rat; format: ADME, organism-based; settings: in vivo, read-out: beta t1/2 (converted)
[23] = Oral bioavailability in mouse; format: ADME, organism-based; settings: in vivo
[24] = Ratio of drug concentration in brain to plasma in mouse at 30 mg/kg, po measured after 6 hrs; format: ADME, organism-based; settings: read-out: BPR
[25] = molecular target: Amyloid-beta precursor protein (Homo sapiens, UniProt P05067); assay: Inhibition of amyloid beta (1 to […] ) (unknown origin)
Sequence of Amyloid-beta precursor protein (P05067 whole entry): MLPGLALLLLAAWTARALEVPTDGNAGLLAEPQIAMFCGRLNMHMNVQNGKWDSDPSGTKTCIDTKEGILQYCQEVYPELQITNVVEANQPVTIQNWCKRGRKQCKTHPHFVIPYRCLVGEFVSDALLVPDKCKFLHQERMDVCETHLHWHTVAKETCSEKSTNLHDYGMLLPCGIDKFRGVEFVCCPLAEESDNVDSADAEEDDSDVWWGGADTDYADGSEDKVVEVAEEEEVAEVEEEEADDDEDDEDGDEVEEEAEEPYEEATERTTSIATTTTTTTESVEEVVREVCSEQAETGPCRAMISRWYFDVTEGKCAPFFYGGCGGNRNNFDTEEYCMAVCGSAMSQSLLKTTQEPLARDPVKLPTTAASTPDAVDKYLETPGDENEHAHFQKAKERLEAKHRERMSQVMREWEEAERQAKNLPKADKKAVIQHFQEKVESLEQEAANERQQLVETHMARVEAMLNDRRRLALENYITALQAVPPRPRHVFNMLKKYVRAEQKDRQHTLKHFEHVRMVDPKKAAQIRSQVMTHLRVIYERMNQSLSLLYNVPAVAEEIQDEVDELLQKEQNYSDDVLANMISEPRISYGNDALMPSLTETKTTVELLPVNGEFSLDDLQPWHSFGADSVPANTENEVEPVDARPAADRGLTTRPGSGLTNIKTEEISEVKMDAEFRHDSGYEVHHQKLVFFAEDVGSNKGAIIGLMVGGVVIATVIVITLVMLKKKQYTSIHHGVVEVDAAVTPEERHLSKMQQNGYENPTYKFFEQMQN

[26] = Tmax in rhesus monkey at 40 mg/kg, po; format: ADME, organism-based, Macaca mulatta; settings: in vivo
[27] = Clearance in dog plasma assessed as half-life; format: ADME, cell-free, Canis lupus familiaris
[28] = Clearance in rat plasma assessed as half-life; format: ADME, cell-free
[29] = Stability of the compound at pH 1.3 assessed as degradation half life; format: physicochemical; settings: buffer
[30] = Stability of the compound at pH 7.30 assessed as degradation half life; format: physicochemical; settings: buffer, pH 7.3
[31] = Aqueous solubility of the compound at pH 1.3 to 8; format: physicochemical; settings: buffer
[32] = Stability in dog plasma assessed as drug degradation measured after 44 hrs; format: ADME, cell-free, Canis lupus familiaris; settings: read-out: Drug degradation
[33] = Stability in rat plasma assessed as drug degradation measured after 44 hrs; format: ADME, cell-free; settings: read-out: Drug degradation
[34] = Stability in human plasma assessed as drug degradation measured after 44 hrs; format: ADME, cell-free; settings: read-out: Drug degradation
[35] = Stability in monkey plasma assessed as drug degradation measured after 44 hrs; format: ADME, cell-free, Macaca mulatta; settings: rhesus monkey, read-out: Drug degradation
[36] = Half-life in rat at 10 mg/kg, po; format: ADME, organism-based; settings: in vivo
[37] = molecular target: Sterol O-acyltransferase 1 (Homo sapiens, UniProt P35610); assay: Inhibition of ACAT in human THP-1; format: cell-based
Sequence of Sterol O-acyltransferase 1 (P35610 whole entry): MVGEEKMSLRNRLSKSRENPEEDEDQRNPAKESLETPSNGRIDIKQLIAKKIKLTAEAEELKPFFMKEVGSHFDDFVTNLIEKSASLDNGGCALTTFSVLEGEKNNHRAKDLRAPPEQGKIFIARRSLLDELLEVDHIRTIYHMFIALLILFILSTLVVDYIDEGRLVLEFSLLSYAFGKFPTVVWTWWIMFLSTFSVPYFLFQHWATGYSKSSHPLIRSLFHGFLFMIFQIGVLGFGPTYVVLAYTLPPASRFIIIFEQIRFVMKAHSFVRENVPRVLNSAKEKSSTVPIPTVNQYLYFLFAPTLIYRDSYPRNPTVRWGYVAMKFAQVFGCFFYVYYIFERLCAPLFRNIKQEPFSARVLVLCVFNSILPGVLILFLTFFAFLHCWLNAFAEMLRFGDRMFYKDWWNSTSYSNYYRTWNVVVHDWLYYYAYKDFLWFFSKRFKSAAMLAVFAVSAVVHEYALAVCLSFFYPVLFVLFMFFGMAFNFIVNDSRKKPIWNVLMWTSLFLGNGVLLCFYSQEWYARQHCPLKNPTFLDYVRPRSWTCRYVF

[38] = Stability of the compound assessed as compound hydrolysis by measuring relative rate constant by titrimetric method; format: physicochemical
[39] = molecular target: Somatostatin receptor type 2 (Homo sapiens, UniProt P30874); assay: Inhibition of human SSTR2
Sequence of Somatostatin receptor type 2 (P30874 whole entry): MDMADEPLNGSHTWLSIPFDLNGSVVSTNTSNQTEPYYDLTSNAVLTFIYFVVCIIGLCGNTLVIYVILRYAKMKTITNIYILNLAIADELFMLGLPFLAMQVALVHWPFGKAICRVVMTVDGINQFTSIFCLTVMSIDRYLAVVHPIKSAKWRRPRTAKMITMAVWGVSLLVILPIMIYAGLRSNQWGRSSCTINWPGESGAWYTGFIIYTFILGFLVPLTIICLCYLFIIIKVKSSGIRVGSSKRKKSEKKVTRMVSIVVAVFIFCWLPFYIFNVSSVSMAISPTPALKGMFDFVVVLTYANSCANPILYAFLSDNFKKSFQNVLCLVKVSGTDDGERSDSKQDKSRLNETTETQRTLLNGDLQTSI

[40] = Oral bioavailability in dog; format: ADME, organism-based, Canis lupus familiaris; settings: in vivo
[41] = Half-life in human; format: ADME
[42] = Tmax in human; format: ADME
[43] = Half-life of the compound in aqueous solution at pH 6.0; format: physicochemical
[44] = Aqueous stability of the compound at pH 7 assessed as half-life; format: physicochemical; settings: aqueous solution
CCRF-CEM = assay: Anticancer activity against human CCRF-CEM cells; format: functional, cell-based
K562 = assay: Anticancer activity against human K562 cells; format: functional, cell-based
HEp-2 = assay: Anticancer activity against human HEp-2 cells; format: functional, cell-based
L1210 = assay: Anticancer activity against mouse L1210 cells; format: functional, cell-based

## CO[C@H]1O[C@@H]2O[C@@]3(C)CC[C@H]4[C@H](C)CC[C@@H]([C@H]1C)[C@@]24OO3
[1]
  ED50: 8.4 µmol/kg
Plasmodium falciparum
  IC50: 3.5 nM
[2]
  half-life: 11 h

## CCCS(=O)(=O)N1CCC(N2CCC(C3(c4ccc(S(=O)(=O)c5ccc6c(c5)OCO6)cc4)CCCO3)CC2)CC1 (stereo unspecified)
[3]
  Ki: 5 nM

## O=C1OCc2c1cc1cc(OCc3cccc(C4(O)CC5COC(C4)O5)c3)ccc1c2-c1ccoc1 (stereo unspecified)
[4]
  IC50: 7 nM
Homo sapiens
  IC50: 180 nM

## CC[C@H](C)C[C@H](C)CCCCCCCCC(=O)N[C@H]1C[C@@H](O)[C@@H](OCCN)NC(=O)[C@@H]2[C@@H](O)CCN2C(=O)[C@H]([C@H](O)CCN)NC(=O)[C@H]([C@H](O)[C@@H](O)c2ccc(O)cc2)NC(=O)[C@@H]2C[C@@H](O)CN2C(=O)[C@H]([C@@H](C)O)NC1=O
In vivo [5]
  half-life: 2.6 h
[6]
  clearance: 0.56 mL/min/kg
Candida albicans [7]
  MFC: < 0.06 µg/mL
[8]
  clearance: 0.58 mL/min/kg
In vivo [9]
  half-life: 2.8 h
Candida albicans [10]
  IC50: 1 nM

## Nc1ccn([C@@H]2CO[C@H](CO)O2)c(=O)n1 [TROXACITABINE]
[11]
  bioavailability: 41%
[12]
  bioavailability: 37%

## COc1ccc(C2(c3ccc(OC)cc3)OCCO2)cc1
[13]
  K: 8.5 10^-1/M/s
[14]
  K: 1.2 10^-1/M/s

## c1ccc([C@]23OC[C@H](CCn4c2nc2ccccc24)O3)cc1
[15]
  remaining at 2 h: 93.5%
Mus musculus
  ED50: 30 mg/kg

## CCOc1ccc(Cc2cc([C@]34CO[C@](CO)(O3)[C@@H](O)[C@H](O)[C@H]4O)ccc2Cl)cc1
[16]
  IC50: 714 nM

## CCC[C@@H](NC(=O)N1C(=O)C(CC)(CC)[C@@H]1Oc1ccc(CC(=O)O)cc1)c1ccc(C)cc1
[17]
  half-life: 5.8 h
[18]
  bioavailability: 100%
[19]
  K: 6.2 10^5/M/s
[20]
  bioavailability: 23%
[21]
  half-life: 6 h
[22]
  half-life: 2.3 h

## CCC(=O)O[C@@H]([C@H]1C[C@@H](C)[C@H]2[C@H](O1)[C@H](O)[C@@]1(C)[C@@H]3CC[C@H]4C(C)(C)[C@@H](O[C@H]5CN(C6CN(C)C6)CCO5)CC[C@@]45C[C@@]35CC[C@]21C)C(C)(C)O
[23]
  bioavailability: 45%
[24]
  Kp at 6 h: 0.55
[25]
  IC50: 100 nM

## CCC[C@@H](NC(=O)N1C(=O)C(CC)(CC)[C@@H]1Oc1ccc(C(=O)N2CCN(C)CC2)cc1)c1ccc2c(c1)OCO2
[18]
  bioavailability: 65%
[20]
  bioavailability: 39%
[26]
  Tmax: 8 h
[21]
  half-life: 6 h

## CCOc1ccc(Cc2cc([C@]34OC[C@](CO)(O3)[C@@H](O)[C@H](O)[C@H]4O)ccc2Cl)cc1 [ERTUGLIFLOZIN]
[27]
  half-life: 7.6 h
[28]
  half-life: 4.1 h

## COc1cc([C@@H]2c3cc4c(cc3[C@@H](O[C@@H]3O[C@@H]5CO[C@@H](C)O[C@H]5[C@H](O)[C@H]3O)[C@H]3COC(=O)[C@H]23)OCO4)cc(OC)c1O [ETOPOSIDE]
[29]
  half-life: 2.88 h
[30]
  half-life: 27.7 h
[31]
  solubility: 116 µg/mL (≈ 197 µM)

## CCCCCOc1ccc(-c2ccc(-c3ccc(C(=O)N[C@H]4C[C@@H](O)[C@@H](OCC[N+](C)(C)C)NC(=O)[C@@H]5[C@@H](O)[C@@H](C)CN5C(=O)[C@H]([C@@H](C)O)NC(=O)[C@H]([C@H](O)[C@@H](O)c5ccc(O)cc5)NC(=O)[C@@H]5C[C@@H](O)CN5C(=O)[C@H]([C@@H](C)O)NC4=O)cc3)cc2)cc1 [REZAFUNGIN] ({pTerphenylCO(4''-OnC5H11)}-[Orn(4R-OH,5R-OCH2CH2NMe3+)]T[Hyp][hTyr(3S-OH,4S-OH)]T[Pro(3S-OH,4S-Me)]; lactam 1-C)
[32]
  metabolised at 44 h: 21%
[33]
  metabolised at 44 h: 9%
[34]
  metabolised at 44 h: 7%
[35]
  metabolised at 44 h: 6%

## CN1CCN(C2CCN(C(=O)CC3CCC4(CC3)OOC3(OO4)C4CC5CC(C4)CC3C5)CC2)CC1 (stereo unspecified)
[23]
  bioavailability: 42%
[18]
  bioavailability: 38%
[36]
  half-life: 2.4 h

## Cc1cc(C)n(CCCC[C@H]2CO[C@H](c3nc(-c4ccccc4)c(-c4ccccc4)[nH]3)OC2)n1
[37]
  IC50: > 500 nM

## CC1(C)OCCO1
[38]
  K: 5.4 10^4No_unit

## C[C@@H](c1c[nH]c2ccccc12)[C@H](C(=O)N[C@@H](CCCCN)C(=O)OC(C)(C)C)N1CCN(CCCc2ccccc2)C1=O
[39]
  Ki: 3.6 nM
[40]
  bioavailability: 5%

## CN1CCN(C(=O)O[C@H]2c3nccnc3C(=O)N2c2ccc(Cl)cn2)CC1 [ESZOPICLONE]
[41]
  half-life: 5 h
[42]
  Tmax: 1 h

## CO[C@@]1(NC(=O)CCC[C@@H](N)C(=O)O)C(=O)N2C(C(=O)O)=C(COC(N)=O)CS[C@@H]21
[43]
  half-life: 459 h

## CC1(C)S[C@@H]2[C@H](NC(=O)[C@H](N)c3ccccc3)C(=O)N2[C@H]1C(=O)O [AMPICILLIN]
[44]
  half-life: 0.25 h

## Nc1nc(F)nc2c1ncn2[C@@H]1O[C@H](COP(=O)(O)O)[C@@H](O)[C@@H]1O [FLUDARABINE PHOSPHATE]
CCRF-CEM
  IC50: 400 nM
K562
  IC50: 150 nM
HEp-2
  IC50: 9000 nM
L1210
  IC50: 3000 nM

Reference: ChEMBL document CHEMBL5244275, “Geminal Diheteroatomic Motifs: Some Applications of Acetals, Ketals, and Their Sulfur and Nitrogen Homologues in Medicinal Chemistry and Drug Design” (J Med Chem, 2021)
